The values below come from patent publication US20130217595A1, “METHOD FOR THE IDENTIFICATION OF CATECHOL O-METHYLTRANSFERASE MODULATORS” (Hoffman-La Roche Inc., priority 2010, published 2013).

In the experiment the target is human COMT (Homo sapiens, UniProt P21964). As to conditions: SAM limited (500 nM); Alexa Fluor 488-Nitrocatechol substrate; FIG. 5.
human COMT, sequence (P21964 whole entry): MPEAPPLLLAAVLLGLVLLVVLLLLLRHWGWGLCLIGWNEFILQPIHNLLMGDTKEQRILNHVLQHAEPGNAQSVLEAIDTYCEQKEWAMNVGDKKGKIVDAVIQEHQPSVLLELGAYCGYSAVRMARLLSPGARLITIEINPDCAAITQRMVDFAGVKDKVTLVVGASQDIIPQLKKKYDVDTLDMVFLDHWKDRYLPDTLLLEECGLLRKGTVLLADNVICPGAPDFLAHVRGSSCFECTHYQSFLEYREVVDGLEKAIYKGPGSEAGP

Experimental: The term “kinetic readout” refers to the difference of the fluorescent signal measured at two certain time points in the linear part of an enzymatic reaction. One measurement is done at the beginning of the enzymatic reaction (start-point) and after an incubation time a second readout is performed (end-point). The final signal is then calculated in rfu/min as (rfu(end-point)—rfu(start-point))/incubation time. (rfu: relative fluorescence units)
384-well microtiter plate, Corning black with flat clear bottom, non binding surface, polystyrene (ref. 3655)
Reagent and Buffer Stock Solutions: • Buffer stock solutions: • M Phosphate buffer pH 7.6 (Na2HPO4 Fluka 71644, NaH2PO4 Merck 6346.0500) stored at 4° C. • 580 mM MgCl2 (Merck 1.0833.0250), stored at RT • 1 M CaCl2 stored at 4° C. • 65 mM DTT (Sigma D-0632), stored at −20° C. • Recombinant human COMT: prepared in house, stored at −80° C. • 4-Nitrocatechol-Alexa Fluor 488: prepared in house, 1.3 mM in DMSO, stored at RT in the dark • S-Adenosyl-methionine: 10 mM in H2O (Sigma-Aldirch A2804), stored at −20° C. […]
Readout: kinetic measurement on plate: vision TM reader (exc. 475(40) nm, em. 535(45) nm, intensity 7.5%, exposure time 1 s.

Consider `NCCc1ccc(O)c(O)c1` [dopamine], for which the “kinetic fluorescence readout plateau as a function of compound concentration” value is recorded as “Decreasing plateaus were reached with increasing dopamine concentrations”.
